Laboratory results from PMC7704793 (Bioorganic & medicinal chemistry letters, 2020).

What was measured:
CCD-18 Co cells = experiment: MTT cytotoxicity assay in normal human colon cells; format: cell-based; details: day 1, CCD-18 Co cells
MRSA ATCC 43300 = experiment: Inhibition of MRSA biofilm formation, crystal violet reporter assay; format: cell-based, Staphylococcus aureus; details: SAR discussion

SMILES | MRSA biofilm inhibition activity compared to the parent 5a (in words) (MRSA ATCC 43300) | also measured
CSc1ccc(-c2cc(-c3nc4ccccc4c(=O)[nH]3)nc(N)n2)cc1 [Compound 5j] | – | cellular toxicity (MTT) (CCD-18 Co cells; 50 μM, versus DMSO controls): more cytotoxic
COc1cc(-c2cc(-c3nc4ccccc4c(=O)[nH]3)nc(N)n2)cc(OC)c1OC [Compound 5i] | considerably reduced activity | –
Nc1nc(-c2cccc(Br)c2)cc(-c2nc3ccccc3c(=O)[nH]2)n1 [Compound 5k] | – | cellular toxicity (MTT) (CCD-18 Co cells; 12.5 μM (lowest concentration used)): significant toxicity
COc1ccc(-c2cc(-c3nc4ccccc4c(=O)[nH]3)nc(N)n2)cc1OC [Compound 5e] | reduced activity | –
Nc1nc(-c2cccc(OCc3ccccc3)c2)cc(-c2nc3ccccc3c(=O)[nH]2)n1 [Compound 5r] | reduced activity | –
COc1cc(OC)c(-c2cc(-c3nc4ccccc4c(=O)[nH]3)nc(N)n2)c(OC)c1 [Compound 5h] | – | cellular toxicity (MTT) (CCD-18 Co cells; 50 μM, versus DMSO controls): minimal
Cc1ccc(-c2cc(-c3nc4ccccc4c(=O)[nH]3)nc(N)n2)cc1 [Compound 5b] | reduced activity | –
